Assay results from publication PMC4506568, “Targeting a Dynamic Protein–Protein Interaction: Fragment Screening against the Malaria Myosin A Motor Complex” (Chemmedchem, 2014).

Biological target: T1, PfMTIPΔ60 (Plasmodium falciparum myosin A tail domain interacting protein, residues 61-204) (Plasmodium falciparum, UniProt Q8I4W8)
T1 construct: gene MTIP; residues 61-204 (N- and C-terminal domains, disordered N-terminal extension removed), N-terminal His tag kept, recombinant as previously described; 15N-labelled for NMR; free of myoA tail
Assay: 1H, […]-HSQC NMR titration
Format: binding

T1 sequence (Q8I4W8 entry or part of it, stated change not applied): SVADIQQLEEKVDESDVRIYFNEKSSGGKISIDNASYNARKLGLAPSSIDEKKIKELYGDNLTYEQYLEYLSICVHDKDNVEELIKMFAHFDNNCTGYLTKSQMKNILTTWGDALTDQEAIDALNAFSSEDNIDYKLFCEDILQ

CN(C)Cc1ccc(CSCCN)o1 [compound 8, fragment 8]
Kd: 22.5 ± 2.7 mM
